# Measured values taken from patent US12433953B2, “Compositions and methods related to tumor activated antibodies targeting EGFR and effector cell antigens” (Janux Therapeutics, Inc., priority 2021, dated 2025).
# Read-outs that look alike come from different tables or passages of the source.
# Assays:
# [1] = target: EGFR Fab binding to the EGFR antigen; experiment: ELISA competitive inhibition of EGFR Fab binding to EGFR antigen
# [2] = target: EGFR Fab; experiment: ELISA binding of peptides to EGFR Fab; conditions: for EC50: read-out: EC50 for peptide binding to αEGFR Fab
# [3] = read-out: IC50 for peptide inhibition of αEGFR Fab binding to EGFR antigen, Table 17
# [4] = read-out: IC50 for peptide inhibition of αEGFR Fab binding to EGFR antigen, Table 18
# [5] = Table 21, peptide-8 alanine scanning mutants, read-out: IC50
# [6] = read-out: IC50 for peptide inhibition of αEGFR Fab binding to EGFR antigen, Table 27, peptide-8 optimization
# [7] = Table 25, peptide-8 optimization
# [8] = Table 20, peptide-8 alanine scanning mutants, read-out: IC50
compound,measurement,setting,value
CSCC[C@@H]1NC(=O)[C@H](C(C)C)NC(=O)[C@H](Cc2c[nH]c3ccccc23)NC(=O)[C@H](Cc2c[nH]cn2)NC(=O)[C@H](C)NC(=O)[C@@H](NC(=O)CNC(=O)CN)CSSC[C@@H](C(=O)N[C@@H](CCC(N)=O)C(=O)O)NC(=O)[C@H](Cc2c[nH]c3ccccc23)NC(=O)[C@H](CO)NC(=O)[C@H](CC(C)C)NC(=O)[C@H](CCCNC(=N)N)NC1=O [Peptide-10],IC50,[1]; [3],> 0.3 µM
same,EC50,[2]; Table 15,> 1 µM
CC[C@H](C)[C@@H]1NC(=O)[C@H](CC(C)C)NC(=O)[C@H](C)NC(=O)[C@@H]2CCCN2C(=O)[C@@H](NC(=O)[C@@H]2CCCN2)CSSC[C@@H](C(=O)N[C@H](C(=O)O)C(C)C)NC(=O)[C@H]([C@@H](C)CC)NC(=O)[C@H](C(C)C)NC(=O)[C@H](CCC(=O)O)NC(=O)[C@H](C)NC(=O)[C@H](C(C)C)NC(=O)[C@H](CC(=O)O)NC1=O [Peptide-14],IC50,[1]; [4],> 0.3 µM
same,EC50,[2]; Table 16,> 1 µM
CC[C@H](C)[C@@H]1NC(=O)[C@H](Cc2c[nH]cn2)NC(=O)[C@H](CO)NC(=O)[C@H](CCCNC(=N)N)NC(=O)[C@@H](NC(=O)[C@@H]2CCCN2)CSSC[C@@H](C(=O)N[C@@H](C)C(=O)O)NC(=O)[C@H]([C@@H](C)CC)NC(=O)[C@@H]2CCCN2C(=O)[C@H](CCCCN)NC(=O)[C@H](C)NC(=O)[C@H](C(C)C)NC(=O)[C@H](CC(=O)O)NC1=O [Peptide-27],Fold shift in IC50 relative to Peptide-8 (IC50 Ala mutant/IC50 Peptide-8),[1]; Table 21,2.2
same,IC50,[1]; [5],3.1 µM
CC[C@H](C)[C@@H]1NC(=O)[C@H](Cc2c[nH]cn2)NC(=O)[C@H](CO)NC(=O)[C@H](CCCNC(=N)N)NC(=O)[C@@H](NC(=O)[C@@H]2CCCN2)CSSC[C@@H](C(=O)N[C@H](C(=O)O)C(C)C)NC(=O)[C@H](C)NC(=O)[C@@H]2CCCN2C(=O)[C@H](CCCCN)NC(=O)[C@H](C)NC(=O)[C@H](C(C)C)NC(=O)[C@H](CC(=O)O)NC1=O [Peptide-26],IC50,[1]; [5],> 100 µM
CC[C@H](C)[C@@H]1NC(=O)[C@H](Cc2c[nH]cn2)NC(=O)[C@H](CO)NC(=O)[C@H](CCCNC(=N)N)NC(=O)[C@@H](NC(=O)[C@@H]2CCCN2)CSSC[C@@H](C(=O)N[C@H](C(=O)O)C(C)C)NC(=O)[C@H]([C@@H](C)CC)NC(=O)[C@@H]2CCCN2C(=O)[C@H](CCCCN)NC(=O)[C@H](C)NC(=O)[C@H](C)NC(=O)[C@H](CC(=O)O)NC1=O [Peptide-23],Fold shift in IC50 relative to Peptide-8 (IC50 Ala mutant/IC50 Peptide-8),[1]; Table 21,2.7
same,IC50,[1]; [5],3.8 µM
CC[C@H](C)[C@@H]1NC(=O)[C@H](Cc2c[nH]cn2)NC(=O)[C@H](CO)NC(=O)[C@H](CCCNC(=N)N)NC(=O)[C@@H](NC(=O)[C@@H]2CCCN2)CSSC[C@@H](C(=O)N[C@H](C(=O)O)C(C)C)NC(=O)[C@H]([C@@H](C)CC)NC(=O)[C@@H]2CCCN2C(=O)[C@H](C)NC(=O)[C@H](C)NC(=O)[C@H](C(C)C)NC(=O)[C@H](CC(=O)O)NC1=O [Peptide-24],IC50,[1]; [5],> 100 µM
CC[C@H](C)[C@@H]1NC(=O)[C@@H]2CCCN2C(=O)[C@H](CCCCN)NC(=O)[C@H](C)NC(=O)[C@@H]2CCCN2C(=O)[C@H](CC(=O)O)NC(=O)[C@H](CC(N)=O)NC(=O)[C@H](Cc2c[nH]cn2)NC(=O)[C@H](CO)NC(=O)[C@H](CC(C)C)NC(=O)[C@@H](NC(=O)[C@@H]2CCCN2)CSSC[C@@H](C(=O)N[C@@H](C)C(=O)O)NC1=O [Peptide-41],IC50,[1]; [6],4.25 µM
same,EC50,[2]; [7],0.292 µM
CC[C@H](C)[C@@H]1NC(=O)[C@H](Cc2c[nH]cn2)NC(=O)[C@H](C)NC(=O)[C@H](CCCNC(=N)N)NC(=O)[C@@H](NC(=O)[C@@H]2CCCN2)CSSC[C@@H](C(=O)N[C@H](C(=O)O)C(C)C)NC(=O)[C@H]([C@@H](C)CC)NC(=O)[C@@H]2CCCN2C(=O)[C@H](CCCCN)NC(=O)[C@H](C)NC(=O)[C@H](C(C)C)NC(=O)[C@H](CC(=O)O)NC1=O [Peptide-19],Fold shift in IC50 relative to Peptide-8 (IC50 Ala mutant/IC50 Peptide-8),[1]; Table 20,24
same,IC50,[1]; [8],93 µM
CC[C@H](C)[C@@H]1NC(=O)[C@H](Cc2c[nH]cn2)NC(=O)[C@H](CO)NC(=O)[C@H](C)NC(=O)[C@@H](NC(=O)[C@@H]2CCCN2)CSSC[C@@H](C(=O)N[C@H](C(=O)O)C(C)C)NC(=O)[C@H]([C@@H](C)CC)NC(=O)[C@@H]2CCCN2C(=O)[C@H](CCCCN)NC(=O)[C@H](C)NC(=O)[C@H](C(C)C)NC(=O)[C@H](CC(=O)O)NC1=O [Peptide-18],Fold shift in IC50 relative to Peptide-8 (IC50 Ala mutant/IC50 Peptide-8),[1]; Table 20,1.4
same,IC50,[1]; [8],5.6 µM
CC(C)C[C@@H]1NC(=O)[C@H](CCC(N)=O)NC(=O)CNC(=O)[C@H](CCCNC(=N)N)NC(=O)[C@H](CCC(N)=O)NC(=O)[C@H](Cc2c[nH]c3ccccc23)NC(=O)[C@H](C(C)C)NC(=O)[C@H](CO)NC(=O)[C@H](CC(N)=O)NC(=O)[C@@H](NC(=O)[C@@H](N)Cc2ccc(O)cc2)CSSC[C@@H](C(=O)O)NC(=O)[C@H](Cc2c[nH]c3ccccc23)NC(=O)[C@H](Cc2ccc(O)cc2)NC1=O [Peptide-15],IC50,[1]; [4],> 0.3 µM
same,binding affinity for EGFR Fab (in words),[2]; among peptides of Table 14,strongest binding affinities (lowest EC50s)
same,EC50,[2]; Table 16,0.007 µM
CC(C)C[C@H](NC(=O)[C@@H]1CSSC[C@H](NC(=O)[C@@H](N)Cc2c[nH]c3ccccc23)C(=O)N[C@@H]([C@@H](C)O)C(=O)N[C@@H](C(C)C)C(=O)N[C@@H](Cc2c[nH]c3ccccc23)C(=O)NCC(=O)N[C@@H](CC(=O)O)C(=O)N[C@@H](CCCNC(=N)N)C(=O)N[C@@H](CCC(N)=O)C(=O)N[C@@H](CCC(=O)O)C(=O)N[C@@H](C(C)C)C(=O)N[C@@H](CCCNC(=N)N)C(=O)N1)C(=O)O [Peptide-7],IC50,[1]; [3],> 0.3 µM
same,EC50,[2]; Table 15,> 1 µM
CSCC[C@@H]1NC(=O)[C@H](Cc2c[nH]c3ccccc23)NC(=O)[C@H](Cc2ccc(O)cc2)NC(=O)[C@H](Cc2c[nH]cn2)NC(=O)[C@H](C(C)C)NC(=O)[C@@H](NC(=O)[C@@H](NC(=O)[C@@H](N)CO)[C@@H](C)O)CSSC[C@@H](C(=O)N[C@H](C(=O)O)C(C)C)NC(=O)[C@H](CO)NC(=O)[C@H](CCCNC(=N)N)NC(=O)[C@H](CC(C)C)NC(=O)[C@H](CCC(N)=O)NC1=O [Peptide-9],IC50,[1]; [3],> 0.3 µM
same,EC50,[2]; Table 15,> 1 µM
"CC[C@H](C)[C@@H]1NC(=O)[C@@H]2CCCN2C(=O)[C@H](CCCCN)NC(=O)[C@H](C)NC(=O)[C@@H]2CCCN2C(=O)[C@H](CC(=O)O)NC(=O)[C@H](Cc2ccccc2)NC(=O)[C@H](Cc2c[nH]cn2)NC(=O)[C@H](Cc2ccccc2)NC(=O)[C@H](CC(C)C)NC(=O)[C@@H](NC(=O)[C@@H]2CCCN2)CSSC[C@@H](C(=O)N[C@@H](CO)C(=O)O)NC1=O [Peptide-46, PCLFHFDPAKPICS]",potency as peptide mask (in words),[1]; binding and inhibition data relative to peptide-8,more potent peptide masks
same,IC50,[1]; [6],0.3 µM
same,EC50,[2]; [7],0.0049 µM
CSCC[C@@H]1NC(=O)[C@H](CCCNC(=N)N)NC(=O)[C@H](C(C)C)NC(=O)[C@H](CCSC)NC(=O)[C@H](CCCNC(=N)N)NC(=O)[C@H](Cc2c[nH]cn2)NC(=O)[C@H](CC(C)C)NC(=O)CNC(=O)[C@H](CC(=O)O)NC(=O)CNC(=O)[C@@H](NC(=O)CN)CSSC[C@@H](C(=O)O)NC(=O)[C@H](Cc2c[nH]c3ccccc23)NC1=O [Peptide-12],IC50,[1]; [3],> 0.3 µM
same,EC50,[2]; Table 15,> 1 µM
CC[C@H](C)[C@@H]1NC(=O)[C@H](Cc2c[nH]cn2)NC(=O)[C@H](CO)NC(=O)[C@H](CCCNC(=N)N)NC(=O)[C@@H](NC(=O)[C@@H]2CCCN2)CSSC[C@@H](C(=O)N[C@H](C(=O)O)C(C)C)NC(=O)[C@H]([C@@H](C)CC)NC(=O)[C@@H]2CCCN2C(=O)[C@H](CCCCN)NC(=O)[C@H](C)NC(=O)[C@H](C(C)C)NC(=O)[C@H](C)NC1=O [Peptide-22],IC50,[1]; [8],> 100 µM
CC[C@H](C)[C@@H]1NC(=O)[C@@H]2CCCN2C(=O)[C@H](CCCCN)NC(=O)[C@H](C)NC(=O)[C@H](C(C)C)NC(=O)[C@H](CC(=O)O)NC(=O)[C@H](C)NC(=O)[C@H](Cc2c[nH]cn2)NC(=O)[C@H](CO)NC(=O)[C@H](CCCNC(=N)N)NC(=O)[C@@H](NC(=O)[C@@H]2CCCN2)CSSC[C@@H](C(=O)N[C@H](C(=O)O)C(C)C)NC1=O [Peptide-21],Fold shift in IC50 relative to Peptide-8 (IC50 Ala mutant/IC50 Peptide-8),[1]; Table 20,0.5
same,IC50,[1]; [8],1.95 µM
CC[C@H](C)[C@@H]1NC(=O)[C@H](Cc2c[nH]cn2)NC(=O)[C@H](CO)NC(=O)[C@H](CCCNC(=N)N)NC(=O)[C@@H](NC(=O)[C@H](C)N)CSSC[C@@H](C(=O)N[C@H](C(=O)O)C(C)C)NC(=O)[C@H]([C@@H](C)CC)NC(=O)[C@@H]2CCCN2C(=O)[C@H](CCCCN)NC(=O)[C@H](C)NC(=O)[C@H](C(C)C)NC(=O)[C@H](CC(=O)O)NC1=O [Peptide-17],Fold shift in IC50 relative to Peptide-8 (IC50 Ala mutant/IC50 Peptide-8),[1]; Table 20,4.1
same,IC50,[1]; [8],16 µM
CC[C@H](C)[C@@H]1NC(=O)[C@H](C)NC(=O)[C@H](CO)NC(=O)[C@H](CCCNC(=N)N)NC(=O)[C@@H](NC(=O)[C@@H]2CCCN2)CSSC[C@@H](C(=O)N[C@H](C(=O)O)C(C)C)NC(=O)[C@H]([C@@H](C)CC)NC(=O)[C@@H]2CCCN2C(=O)[C@H](CCCCN)NC(=O)[C@H](C)NC(=O)[C@H](C(C)C)NC(=O)[C@H](CC(=O)O)NC1=O [Peptide-20],Fold shift in IC50 relative to Peptide-8 (IC50 Ala mutant/IC50 Peptide-8),[1]; Table 20,2.8
same,IC50,[1]; [8],11 µM
CC[C@H](C)[C@@H]1NC(=O)[C@H](C)NC(=O)[C@H](CCCCN)NC(=O)[C@H](C)NC(=O)[C@H](C(C)C)NC(=O)[C@H](CC(=O)O)NC(=O)[C@H]([C@@H](C)CC)NC(=O)[C@H](Cc2c[nH]cn2)NC(=O)[C@H](CO)NC(=O)[C@H](CCCNC(=N)N)NC(=O)[C@@H](NC(=O)[C@@H]2CCCN2)CSSC[C@@H](C(=O)N[C@H](C(=O)O)C(C)C)NC1=O [Peptide-25],IC50,[1]; [5],> 100 µM
